Laboratory results as given in EP0477217B1, “STABILIZED, POTENT GRF ANALOGS” (THE UPJOHN COMPANY, priority 1989, dated 1994).
Where no end group is shown, it is not given here.

Legend:
[1] = tested on: release of GH by the pituitary; assay: relative in vivo potency of GRF analogs (Table I); conditions: expected from the relative in vivo potency at a dose of 0.01 nmol/kg; ED50 not determined
[2] = tested on: plasma DPP-IV; type: in vitro ADME, bovine
Protocol: Evidence of the improved metabolic stability of the compounds of this invention (when compared to native GRF) is illustrated in Table I by the in vitro stability data provided. It is noteworthy that in bovine plasma in vitro, the analogs having […], Val², Ile² or Leu² were not cleaved after residue 2 by plasma DPP-IV under the experimental conditions used in the study (one hour plasma incubation).

Substance	potency relative to its isomer Leu2 Ala15 Leu27 bGRF(1-29)NH2, trifluoroacetate salt, when the ED50 of each is determined and compared [1]	DPP-IV related cleavage [2]
Ile² Ala¹⁵ Leu²⁷ bGRF(1-29)NH₂, trifluoroacetate salt [Cpd. No. 3]	10-20 times	
YTDAIFTNSYRKVLAQLSARKLLQDILNR-NH2 [Cpd. No. 1, Thr² Ala¹⁵ Leu²⁷ bGRF(1-29)NH₂, trifluoroacetate salt]		slight DPP-IV related cleavage
